Assay results reported in patent US20230085307A1, “PYRIDAZINONE COMPOUND AND HERBICIDE” (NISSAN CHEMICAL CORPORATION, priority 2019, published 2023).

Key:
[1] = tested on: Japanese bulrush; test: Test Example 1: herbicidal activity, application before weed generation under submerged conditions (Table 16, symbol B); format: in vivo, Japanese bulrush (Schoenoplectus juncoides)
Method in brief: (§1)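 Alluvial soil was flooded to 4 cm depth, weed seeds were sown mixed and 2.5-leaf rice seedlings were transplanted. On sowing day, the compound's emulsion, diluted in water to a set dose, was applied to the water surface. Plants grew at 25–30 °C and were scored 0–5 after three weeks.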

[2] = tested on: Italian ryegrass; test: Test Example 5: herbicidal effect by foliage application, plastic box (Table 20, symbol K); format: in vivo, Italian ryegrass (Lolium multiflorum); settings: evaluated three weeks after application
Method in brief: (§2)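 Sow seeds spot-wise in sterilized diluvial soil; cover with ~1.5 cm soil. Grow 14 days in greenhouse, 25° C. to 30° C. Spray foliage with emulsion diluted to predetermined amount. Rate effect after 3 weeks.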

[3] = tested on: barnyard grass; test: Test Example 3: herbicidal effect by foliage application, Wagner pot (Table 18, symbol H); format: in vivo, barnyard grass (Echinochloa crus-galli); settings: 320 g/ha
Method in brief: (§3)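 Plants were sown in alluvial soil held under 0.1–0.5 cm standing water and grown 14 days in a greenhouse at 25–30 °C. An emulsifiable formulation, water-diluted to the set dose, was then sprayed onto the foliage, and effects were scored three weeks later using previously defined criteria.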

[4] = tested on: velvetleaf; test: Test Example 4: herbicidal effect by soil treatment (Table 19, symbol M); format: in vivo, velvetleaf (Abutilon theophrasti)
Method in brief: (§4)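 Soil-surface application: an emulsion agent diluted with water to the predetermined dose is sprayed uniformly over seeds lying under roughly 1.5 cm of sterilized diluvial soil. Boxes stay in a greenhouse at 25° C. to 30° C. Three weeks later, each species is graded on previously defined criteria.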

[5] = tested on: Chinese sprangletop; test: Test Example 3: herbicidal effect by foliage application, Wagner pot (Table 18, symbol D); format: in vivo, chinese sprangletop (Leptochloa chinensis); settings: 320 g/ha
Method in brief: as §3

[6] = tested on: barnyard grass; test: Test Example 5: herbicidal effect by foliage application, plastic box (Table 20, symbol H); format: in vivo, barnyard grass (Echinochloa crus-galli); settings: evaluated three weeks after application
Method in brief: as §2

[7] = tested on: persian speedwell; test: Test Example 5: herbicidal effect by foliage application, plastic box (Table 20, symbol R); format: in vivo, Persian speedwell (Veronica persica); settings: evaluated three weeks after application
Method in brief: as §2

[8] = tested on: barnyard grass; test: Test Example 4: herbicidal effect by soil treatment (Table 19, symbol H); format: in vivo, barnyard grass (Echinochloa crus-galli)
Method in brief: as §4

[9] = tested on: chickweed; test: Test Example 4: herbicidal effect by soil treatment (Table 19, symbol P); format: in vivo, common chickweed (Stellaria media)
Method in brief: as §4

[10] = tested on: lambsquarters; test: Test Example 5: herbicidal effect by foliage application, plastic box (Table 20, symbol O); format: in vivo, lambsquarters (Chenopodium album); settings: evaluated three weeks after application
Method in brief: as §2

[11] = tested on: green foxtail; test: Test Example 5: herbicidal effect by foliage application, plastic box (Table 20, symbol G); format: in vivo, green foxtail (Setaria viridis); settings: evaluated three weeks after application
Method in brief: as §2

[12] = tested on: chickweed; test: Test Example 5: herbicidal effect by foliage application, plastic box (Table 20, symbol P); format: in vivo, common chickweed (Stellaria media); settings: evaluated three weeks after application
Method in brief: as §2

[13] = tested on: wild oat; test: Test Example 4: herbicidal effect by soil treatment (Table 19, symbol I); format: in vivo, wild oat (Avena fatua)
Method in brief: as §4

[14] = tested on: redroot pigweed; test: Test Example 4: herbicidal effect by soil treatment (Table 19, symbol N); format: in vivo, redroot pigweed (Amaranthus retroflexus)
Method in brief: as §4

[15] = tested on: Italian ryegrass; test: Test Example 4: herbicidal effect by soil treatment (Table 19, symbol K); format: in vivo, Italian ryegrass (Lolium multiflorum)
Method in brief: as §4

[16] = tested on: southern crabgrass; test: Test Example 4: herbicidal effect by soil treatment (Table 19, symbol F); format: in vivo, southern crabgrass (Digitaria ciliaris)
Method in brief: as §4

[17] = tested on: wild oat; test: Test Example 5: herbicidal effect by foliage application, plastic box (Table 20, symbol I); format: in vivo, wild oat (Avena fatua); settings: evaluated three weeks after application
Method in brief: as §2

[18] = tested on: velvetleaf; test: Test Example 5: herbicidal effect by foliage application, plastic box (Table 20, symbol M); format: in vivo, velvetleaf (Abutilon theophrasti); settings: evaluated three weeks after application
Method in brief: as §2

[19] = tested on: windgrass; test: Test Example 4: herbicidal effect by soil treatment (Table 19, symbol L); format: in vivo, windgrass (Apera spica-venti)
Method in brief: as §4

[20] = tested on: oval-leafed pondweed; test: Test Example 1: herbicidal activity, application before weed generation under submerged conditions (Table 16, symbol C); format: in vivo, oval-leafed pondweed (Monochoria vaginalis)
Method in brief: as §1

[21] = tested on: blackgrass; test: Test Example 5: herbicidal effect by foliage application, plastic box (Table 20, symbol J); format: in vivo, blackgrass (Alopecurus myosuroides); settings: evaluated three weeks after application
Method in brief: as §2

[22] = tested on: blackgrass; test: Test Example 4: herbicidal effect by soil treatment (Table 19, symbol J); format: in vivo, blackgrass (Alopecurus myosuroides)
Method in brief: as §4

[23] = tested on: redroot pigweed; test: Test Example 5: herbicidal effect by foliage application, plastic box (Table 20, symbol N); format: in vivo, redroot pigweed (Amaranthus retroflexus); settings: evaluated three weeks after application
Method in brief: as §2

[24] = tested on: lambsquarters; test: Test Example 4: herbicidal effect by soil treatment (Table 19, symbol O); format: in vivo, lambsquarters (Chenopodium album)
Method in brief: as §4

[25] = tested on: late watergrass; test: Test Example 1: herbicidal activity, application before weed generation under submerged conditions (Table 16, symbol A); format: in vivo, late watergrass (Echinochloa oryzicola)
Method in brief: as §1

[26] = tested on: windgrass; test: Test Example 5: herbicidal effect by foliage application, plastic box (Table 20, symbol L); format: in vivo, windgrass (Apera spica-venti); settings: evaluated three weeks after application
Method in brief: as §2

[27] = tested on: southern crabgrass; test: Test Example 5: herbicidal effect by foliage application, plastic box (Table 20, symbol F); format: in vivo, southern crabgrass (Digitaria ciliaris); settings: evaluated three weeks after application
Method in brief: as §2

[28] = tested on: green foxtail; test: Test Example 4: herbicidal effect by soil treatment (Table 19, symbol G); format: in vivo, green foxtail (Setaria viridis)
Method in brief: as §4

[29] = tested on: persian speedwell; test: Test Example 4: herbicidal effect by soil treatment (Table 19, symbol R); format: in vivo, Persian speedwell (Veronica persica)
Method in brief: as §4

[30] = tested on: rice flat sedge; test: Test Example 3: herbicidal effect by foliage application, Wagner pot (Table 18, symbol E); format: in vivo, rice flat sedge (Cyperus iria); settings: 320 g/ha
Method in brief: as §3

[31] = amount of applied herbicide 320 g/ha
[32] = amount of applied herbicide 320 g/ha, foliage application after 14-day growth

Q: Which results are given for `COc1ccccc1-c1sc2c(C)cccc2c1-c1c(O)c(C)nn(C)c1=O` [4-106]?
A: Herbicidal effect, B: Japanese bulrush [1, 31]: 0 (Herbicidal rate of 5% or less (almost no effect)); Herbicidal effect by foliage application, K: Italian ryegrass [2, 32]: 4 (Herbicidal rate of 70% or more and less than 90%); herbicidal effect on barnyard grass (H) [3]: 4 (Herbicidal rate of 70% or more and less than 90%); Herbicidal effect by soil treatment, M: velvetleaf [4, 31]: 0 (Herbicidal rate of 5% or less (almost no effect)); herbicidal effect on Chinese sprangletop (D) [5]: 0 (Herbicidal rate of 5% or less (almost no effect)); Herbicidal effect by foliage application, H: barnyard grass [6, 32]: 1 (Herbicidal rate of 5% or more and less than 20%); Herbicidal effect by foliage application, R: persian speedwell [7, 32]: 5 (Herbicidal rate of 90% or more (almost completely withered)); Herbicidal effect by soil treatment, H: barnyard grass [8, 31]: 0 (Herbicidal rate of 5% or less (almost no effect)); Herbicidal effect by soil treatment, P: chickweed [9, 31]: 1 (Herbicidal rate of 5% or more and less than 20%); Herbicidal effect by foliage application, O: lambsquarters [10, 32]: 3 (Herbicidal rate of 40% or more and less than 70%); Herbicidal effect by foliage application, G: green foxtail [11, 32]: 0 (Herbicidal rate of 5% or less (almost no effect)); Herbicidal effect by foliage application, P: chickweed [12, 32]: 5 (Herbicidal rate of 90% or more (almost completely withered)); Herbicidal effect by soil treatment, I: wild oat [13, 31]: 0 (Herbicidal rate of 5% or less (almost no effect)); Herbicidal effect by soil treatment, N: redroot pigweed [14, 31]: 4 (Herbicidal rate of 70% or more and less than 90%); Herbicidal effect by soil treatment, K: Italian ryegrass [15, 31]: 0 (Herbicidal rate of 5% or less (almost no effect)); Herbicidal effect by soil treatment, F: southern crabgrass [16, 31]: 3 (Herbicidal rate of 40% or more and less than 70%); Herbicidal effect by foliage application, I: wild oat [17, 32]: 2 (Herbicidal rate of 20% or more and less than 40%); Herbicidal effect by foliage application, M: velvetleaf [18, 32]: 3 (Herbicidal rate of 40% or more and less than 70%); Herbicidal effect by soil treatment, L: windgrass [19, 31]: 3 (Herbicidal rate of 40% or more and less than 70%); Herbicidal effect, C: oval-leafed pondweed [20, 31]: 0 (Herbicidal rate of 5% or less (almost no effect)); Herbicidal effect by foliage application, J: blackgrass [21, 32]: 4 (Herbicidal rate of 70% or more and less than 90%); Herbicidal effect by soil treatment, J: blackgrass [22, 31]: 0 (Herbicidal rate of 5% or less (almost no effect)); Herbicidal effect by foliage application, N: redroot pigweed [23, 32]: 4 (Herbicidal rate of 70% or more and less than 90%); Herbicidal effect by soil treatment, O: lambsquarters [24, 31]: 1 (Herbicidal rate of 5% or more and less than 20%); Herbicidal effect, A: late watergrass [25, 31]: 2 (Herbicidal rate of 20% or more and less than 40%); Herbicidal effect by foliage application, L: windgrass [26, 32]: 5 (Herbicidal rate of 90% or more (almost completely withered)); Herbicidal effect by foliage application, F: southern crabgrass [27, 32]: 1 (Herbicidal rate of 5% or more and less than 20%); Herbicidal effect by soil treatment, G: green foxtail [28, 31]: 1 (Herbicidal rate of 5% or more and less than 20%); Herbicidal effect by soil treatment, R: persian speedwell [29, 31]: 1 (Herbicidal rate of 5% or more and less than 20%); herbicidal effect on rice flat sedge (E) [30]: 5 (Herbicidal rate of 90% or more (almost completely withered))

Q: What does the source list for `CSCCOc1ccc(-c2sc3ccc(F)cc3c2-c2c(O)c(C)nn(C)c2=O)cc1` [2-058]?
A: Herbicidal effect on B: Japanese bulrush (grade 0-5) ([1]; 320 g/ha applied herbicide): 2 (Herbicidal rate of 20% or more and less than 40%); herbicidal effect on K: Italian ryegrass ([2]; foliage application, 320 g/ha): 5 (Herbicidal rate of 90% or more (almost completely withered)); herbicidal effect on H (barnyard grass), rating 0-5 [3]: 5 (Herbicidal rate of 90% or more (almost completely withered)); herbicidal effect rating, M: velvetleaf ([4]; 320 g/ha): 3 (Herbicidal rate of 40% or more and less than 70%); herbicidal effect on D (Chinese sprangletop), rating 0-5 [5]: 5 (Herbicidal rate of 90% or more (almost completely withered)); herbicidal effect on H: barnyard grass ([6]; foliage application, 320 g/ha): 5 (Herbicidal rate of 90% or more (almost completely withered)); herbicidal effect on R: persian speedwell ([7]; foliage application, 320 g/ha): 5 (Herbicidal rate of 90% or more (almost completely withered)); herbicidal effect rating, H: barnyard grass ([8]; 320 g/ha): 1 (Herbicidal rate of 5% or more and less than 20%); herbicidal effect rating, P: chickweed ([9]; 320 g/ha): 3 (Herbicidal rate of 40% or more and less than 70%); herbicidal effect on O: lambsquarters ([10]; foliage application, 320 g/ha): 5 (Herbicidal rate of 90% or more (almost completely withered)); herbicidal effect on G: green foxtail ([11]; foliage application, 320 g/ha): 5 (Herbicidal rate of 90% or more (almost completely withered)); herbicidal effect on P: chickweed ([12]; foliage application, 320 g/ha): 5 (Herbicidal rate of 90% or more (almost completely withered)); herbicidal effect rating, I: wild oat ([13]; 320 g/ha): 0 (Herbicidal rate of 5% or less (almost no effect)); herbicidal effect rating, N: redroot pigweed ([14]; 320 g/ha): 5 (Herbicidal rate of 90% or more (almost completely withered)); herbicidal effect rating, K: Italian ryegrass ([15]; 320 g/ha): 4 (Herbicidal rate of 70% or more and less than 90%); herbicidal effect rating, F: southern crabgrass ([16]; 320 g/ha): 5 (Herbicidal rate of 90% or more (almost completely withered)); herbicidal effect on I: wild oat ([17]; foliage application, 320 g/ha): 5 (Herbicidal rate of 90% or more (almost completely withered)); herbicidal effect on M: velvetleaf ([18]; foliage application, 320 g/ha): 5 (Herbicidal rate of 90% or more (almost completely withered)); herbicidal effect rating, L: windgrass ([19]; 320 g/ha): 4 (Herbicidal rate of 70% or more and less than 90%); Herbicidal effect on C: oval-leafed pondweed (grade 0-5) ([20]; 320 g/ha applied herbicide): 0 (Herbicidal rate of 5% or less (almost no effect)); herbicidal effect on J: blackgrass ([21]; foliage application, 320 g/ha): 5 (Herbicidal rate of 90% or more (almost completely withered)); herbicidal effect rating, J: blackgrass ([22]; 320 g/ha): 5 (Herbicidal rate of 90% or more (almost completely withered)); herbicidal effect on N: redroot pigweed ([23]; foliage application, 320 g/ha): 5 (Herbicidal rate of 90% or more (almost completely withered)); herbicidal effect rating, O: lambsquarters ([24]; 320 g/ha): 5 (Herbicidal rate of 90% or more (almost completely withered)); Herbicidal effect on A: late watergrass (grade 0-5) ([25]; 320 g/ha applied herbicide): 0 (Herbicidal rate of 5% or less (almost no effect)); herbicidal effect on L: windgrass ([26]; foliage application, 320 g/ha): 5 (Herbicidal rate of 90% or more (almost completely withered)); herbicidal effect on F: southern crabgrass ([27]; foliage application, 320 g/ha): 5 (Herbicidal rate of 90% or more (almost completely withered)); herbicidal effect rating, G: green foxtail ([28]; 320 g/ha): 4 (Herbicidal rate of 70% or more and less than 90%); herbicidal effect rating, R: persian speedwell ([29]; 320 g/ha): 4 (Herbicidal rate of 70% or more and less than 90%); herbicidal effect on E (rice flat sedge), rating 0-5 [30]: 5 (Herbicidal rate of 90% or more (almost completely withered))
